According to a melting point compilation (Tetko et al.; mined from patent text by program, amines drawn as free bases though some values may be those of a salt):

SMILES | melting point
Nc1ccc(CCC(=O)N2CCCCC2)cc1[N+](=O)[O-] | 140 to 141 °C
COc1ccc(/C=C/c2ccncc2)cc1OCCCCCc1ccccc1 | 98 to 100 °C
COC(=O)c1snc(-c2cc(C(F)(F)F)cc(C(F)(F)F)c2)c1C(=O)OC | 71 to 74 °C
Cc1ccc(CC2CCN(CCOc3ccc4cc(O)ccc4c3)CC2)cc1 | 164 to 166 °C
NC(CN1C(=O)c2ccccc2C1=O)=NO | 192 to 195 °C
N#Cc1ccc2c(c1)C(=O)c1ccccc1CC2 | 104 to 106 °C
COc1cc(OC)cc(C(C)CCCc2ccncc2)c1 (stereo unspecified) | 131 to 133 °C
CC12CCC(O)CC1=CCC1C2CCC2(C)C1CCC2n1ccnc1 (stereo unspecified) | 255 to 258 °C
CC(C)/C=c1\[nH]c(=O)/c(=C/c2c[nH]c3ccccc23)[nH]c1=O | > 300 °C
CCC(COC)Nc1nc(C)nc(N2CCc3cc(OC)cc(Cl)c32)c1C#N (stereo unspecified) | 182 to 183 °C
COc1cc(NC(=O)Nc2cccc3c2C2CC(OC)CCN2C3=O)nc2ccccc12 (stereo unspecified) | > 260 °C
CN(C)CCC1(c2ccccc2)Cc2ccccc2C(=O)O1 (stereo unspecified) | 95 to 95.5 °C
Clc1cc(Cl)c2c(c1)[nH]c1c2ccc2cc[nH]c21 | > 250 °C
Cc1nc(-c2ccc(C#N)cc2)sc1C(=O)N[C@H](C)[C@](O)(Cn1ccnc1)c1ccc(F)cc1F | 126 to 128 °C
O=Cc1ccc(Cl)cc1O | 47 to 48 °C
Clc1cccc(-n2c(/C=C/c3ccccc3)nc3ccccc32)n1 | 122 to 123 °C
O/N=C1\CCCc2c1c1ccccc1n2-c1ccc(O)cc1 | 227 to 229 °C
CC(C)OC(=O)N[C@H]1CC[C@H](CCN2CCN(c3cccc(Cl)c3Cl)CC2)CC1 | 128 to 131 °C
C=CC1OC(OC)C(OCc2ccccc2)C(OCc2ccccc2)C1OCc1ccccc1 (stereo unspecified) | 46 to 47 °C
Cc1nc(-c2ccc(Br)c(C)c2)no1 | 78 °C
Cc1cc(Cl)ccc1NC(=O)NCc1ccc2c(c1)CN(C1CCC(=O)NC1=O)C2=O (stereo unspecified) | 256 to 258 °C
CCCCCc1ccc(-c2ccc(N)cc2)nc1 | 60.3 to 61.3 °C
COc1c(Cl)ccc(-c2cc(N)c(Cl)c(C(=O)NOC/C=C/Cl)n2)c1F | 163 to 165 °C
CNS(=O)(=O)c1cc2c(c(C(=O)O)c1)OCCO2 | 208 to 209 °C

SMILES | melting point
CCCN(CCC)C(Cc1cccc2[nH]cnc12)C(=O)OCC (stereo unspecified) | 78 to 80 °C
O=C(NC(=O)c1ccccc1Cl)Nc1ccc(Cl)c(C(F)(F)F)c1 | 164 °C
CCOC(=O)N1C[C@@H]2CC[C@H]1C(=O)C2 | 68.5 to 69.5 °C
Cn1ccnc1S(=O)(=O)CC(=O)C12CC3CC(CC(C3)C1)C2 | 124 to 125 °C
Cc1ccc(S(=O)(=O)Nc2cc(C3CCCC3)c([N+](=O)[O-])cc2Br)cc1 | 122 °C
ON=c1cc(-c2cc3cccn3cn2)oc2ccc(OCCc3ccc(Cl)cc3)cc12 | 247 to 249 °C
O=S(=O)(Cl)Cc1csc(-c2ccc(Cl)c(Cl)c2)n1 | 124 to 127 °C
CCOC(=O)CC(NC(=O)c1ccc(C)cc1)C(=O)c1ccco1 (stereo unspecified) | 83.5 to 84.5 °C
OC(c1ccccc1)c1cc2cc(Br)ccc2o1 (stereo unspecified) | 56 to 58 °C
CCOC(=O)C=C(C)c1ccc(-c2ccc(F)cc2F)cc1 | 54 to 56 °C
CCCCc1nc(Cl)c(CO)n1Cc1ccc2oc(-c3ccccc3-c3nnn[nH]3)c(Br)c2c1 | 193 to 197 °C
Cc1ccc(S(=O)(=O)OCC2(F)CCN(C(=O)c3ccc(F)c(Cl)c3)CC2)cc1 | 92 °C
Cc1cc(C)cc(Cc2c(C(C)C)c(=O)[nH]c(=O)n2C/C=C/c2ccccc2)c1 | 180 to 181 °C
CC(=O)Nc1ccc(/C=C/C(=O)N2CC(CCl)c3c2cc(N)c2ccccc32)cc1 (stereo unspecified) | > 250 °C
CC1(C)OC(=O)C(=CNc2ncnc3ccccc23)C(=O)O1 | 191 to 193 °C
CC(C)c1cccc(C(C)C)c1NC(=O)NCC1(c2cc(C(F)(F)F)cc(C(F)(F)F)c2)CCCC1 | 165 to 168 °C
CO[C@@H]1[C@H](O)[C@@H](CO)O[C@H]1n1cnc2c(N[C@H](C)Cc3sccc3Cl)ncnc21 | 75 to 76 °C
Cc1c(F)cc2c(=O)c(C(=O)O)cn(C3CC3)c2c1F | 208 to 210 °C
O=C(NCCn1c2ccccc2c(=O)c2ccccc21)OCc1ccccc1 | 224 to 226 °C
CC1(C)c2cc3[nH]c(-c4ccncc4)nc3cc2C(=O)NC1O (stereo unspecified) | 260 to 268 °C
Cc1c(CC(=O)NC2CCN(Cc3ccc(Cl)c(Cl)c3)CC2)cnn1-c1ccccc1 | 165 °C
COc1ccc(Oc2ccccc2Cl)cc1C=O | 65 to 66 °C
CCOC(=O)c1nc2ccc(C(C(C)C)n3ccnc3)cc2[nH]c1=O (stereo unspecified) | 185 °C
CCOC(=O)c1[nH]c2sc(Cl)cc2c1Cl | 166 to 167 °C

SMILES | melting point
Cc1oc(-c2ccccc2)nc1CCOc1ccc(Cn2cc(CCC(=O)O)c(-c3ccccc3)c2)cc1 | 147 to 148 °C
CN(C)C1(c2ccccc2)CCC(CNC(=O)CCCCCc2c[nH]c3ccc(F)cc23)CC1 (stereo unspecified) | 52 to 54 °C
O=c1n(-c2ccc(OCC(F)(F)C(F)F)cc2)cnn1-c1ccc([N+](=O)[O-])cc1 | 161 to 162 °C
CCCCC(=O)c1c(-c2ccc3c(Br)c(OCC(=O)O)ccc3c2)oc2ccc(Cl)cc12 | 130 to 132 °C
Cc1nc2cccc(C(F)(F)F)c2c(=O)n1C1CCC(=O)NC1=O (stereo unspecified) | 268 to 270 °C
COC(=O)c1cc(C(=O)O)nc2cc(Cl)cc(Cl)c12 | 169 to 171 °C
O=C1NC(=S)SC1=Cc1ccc2c(c1)N(CCc1cccc(Cl)c1)C(=O)CO2 | 280 to 282 °C
CC(C)(C)NC(=O)[C@@H]1C[C@H](F)CN1C(=O)[C@@H](O)[C@H](Cc1ccccc1)NC(=O)[C@H](CC(N)=O)NC(=O)OCc1ccccc1 | 95 to 100 °C
CCC(=O)NS(=O)(=O)c1ccc(-c2cc(-c3nc(-c4ccc(C(F)(F)F)cc4)cc(C(F)(F)F)n3)ccn2)s1 | 257 °C
Cc1c(C(=O)O)oc2ccc(OCCNC[C@@H](O)c3csc(C(F)(F)F)n3)cc12 | 128 to 131 °C
CCOC(=O)c1cn(-c2ccc(F)c(NC(C)(C)C)n2)c2c(Br)c(F)c(F)cc2c1=O | 192 to 195 °C
CC(O)Cn1cnc2c1c(=O)n(CC1CCCC1)c(=O)n2CC1CCCC1 (stereo unspecified) | 139 °C
CCOC(=O)C1CCc2c([nH]c3ccc(C)cc23)C1 (stereo unspecified) | 117 to 118 °C
O=C(c1c[nH]c2cc(OCc3ccc(F)cc3)ccc12)C1CSC(c2cccnc2)N1 (stereo unspecified) | 185 to 186 °C
CCc1nc(C)c(C(=O)OC(C)OC(=O)C(C)(C)OC)n1Cc1ccc2oc(-c3ccccc3-c3nnn[nH]3)c(Br)c2c1 (stereo unspecified) | 135 to 140 °C
CCCCCCCCCCCC(=O)c1cn(S(=O)(=O)c2ccc(C)cc2)c2ccccc12 | 79 to 80 °C
COc1ccc(-c2cc(=O)n(Cc3ccc(F)c(F)c3)nc2-c2ccc(OC)cc2)cc1 | 155 to 156 °C
Cc1ccc(NCC2CCN(C(C)C)CC2)c(C(=O)Nc2ccc(Cl)cn2)c1 | 172 to 174 °C
CSc1ccccc1CNC(=O)c1ccc2cnccc2n1 | 102 to 103 °C
OCc1cc2cc(-c3ccccc3)ccc2[nH]1 | 115 to 116 °C
C=CCOc1ccc(C=Cc2ccc([N+](=O)[O-])cc2)cc1 | 114 °C
COc1ccc(COC(=O)NCCc2c[nH]c3ccc(F)cc23)cc1 | 118 to 119 °C
CC(C)CC(C(=O)c1cccc(Cl)c1)c1ccccc1NC(C)(C)C (stereo unspecified) | 172 to 174 °C
CCCC(CCC)c1nc(-c2ccncc2)c(-c2ccc(Cl)cc2)n1CC | 152 to 155 °C

SMILES | melting point
CC(C)(C)CN1C(=O)C(=O)N(c2ccc(C#N)cc2)C1=S | 128 to 129 °C
CCNc1nc(Cl)nc(Nc2ccc(OC)cc2)n1 | 174 to 176 °C
CC1CC2CC(Cc3ccc(O)cc3)CCC2NC1=O (stereo unspecified) | 217 to 223 °C
CCNc1nc2c(C)sc(C(=O)OC)c2n1Cc1ccc(-c2ccccc2C#N)cc1 | 190 to 191 °C
CCC1CC2C3CCC4=CC(=O)CCC4(CSC)C3CCC2(C)C1=O (stereo unspecified) | 83 °C
NC(=O)CN1C(=O)[C@@H](NC(=O)c2ccc(Cl)cc2)[C@H](c2ccccc2)Sc2ccccc21 (relative stereo) | 272 to 275 °C
COc1cc(-c2nc(-c3ccc(N(C)C)cc3)c(C)s2)cc(OC)c1OC(C)=O | 247 to 249 °C
CC(C)(C)C(Cl)=NNc1cc(Cl)c(Cl)cc1[N+](=O)[O-] | 99 to 100 °C
CC(C)(C)c1cc(C(=O)c2cccnc2Cl)cc(C(C)(C)C)c1O | 135 to 137 °C
CCOC(=O)Cc1ccc(-c2nc(COc3ccc(C=O)cc3OC)c(C)o2)cc1 | 151 to 152 °C
COc1ccc(C(=O)Nc2ccccc2)cc1NS(=O)(=O)c1ccccc1 | 190 to 194 °C
O=C(COc1cc(-c2ccccc2)on1)NCCO[N+](=O)[O-] | 113 to 114 °C
O=C1C=CC2(C=C1)CC(=O)N2OCc1ccccc1 | 77 to 79 °C
O=CNC1=NN(c2cccc(F)c2)C(c2ccc(Cl)cc2)C1 (stereo unspecified) | 128 to 130 °C
Cc1cc(-n2ccnc2)c2cccc(OCc3c(Cl)ccc(S(=O)(=O)N4CCC[C@H]4C(=O)NCC4CCN(C(=O)OC(C)(C)C)CC4)c3Cl)c2n1 | 100 °C
O=[N+]([O-])c1cc(C(F)(F)C(F)(F)C(F)(F)/C=C/C(F)(F)C(F)(F)C(F)(F)c2ccc(O)c([N+](=O)[O-])c2)ccc1O | 122 to 123 °C
COc1ccc2c(c1)CCCC2(CO)NC(=O)c1c(F)cccc1F (stereo unspecified) | 174 to 175 °C
O=C(OC1CCC1)c1ccc(O)c(C(=O)O)c1 | 200 °C
Nn1cccc1-c1ccccc1 | 80 to 82 °C
CC(C)(C)OC(=O)N[C@@H](C(=O)N1CCC[C@H]1C(=O)NCC1CCc2n[nH]cc2C1)C(c1ccccc1)c1ccccc1 (stereo partly specified) | 113 to 116 °C
CC1=NC=CC(=O)C1OCc1ccccc1 (stereo unspecified) | 162 to 163 °C
COc1cc(Nc2ncc(N)c(-c3ccccc3)n2)cc(OC)c1OC | 149 to 150 °C
O=C1N=C(N2CCOCC2)SC1=Cc1cc(-c2ccccc2)cc(-c2ccc(O)c(C34CC5CC(CC(C5)C3)C4)c2)c1 | 315 to 320 °C
CC(C)c1cc(-c2cc(C(=O)O)ccc2S(C)(=O)=O)on1 | 176 to 178 °C
